Measurements: patent US20190374533A1, “COMPOUNDS AND METHODS FOR INHIBITING NHE-MEDIATED ANTIPORT IN THE TREATMENT OF DISORDERS ASSOCIATED WITH FLUID RETENTION OR SALT OVERLOAD AND GASTROINTESTINAL TRACT DISORDERS” (Ardelyx, Inc., priority 2008, published 2019)

Target: T1, rat NHE-3 (Rattus norvegicus, UniProt P26433)
T1 construct: expressed in transfected cells; host or cells: Opossum kidney (OK) cells (ATCC), electroporated
Test: Cell-based assay of NHE-3 activity (Pharmacological Test Example 1)
Conditions: OK cells expressing rat NHE-3; 0-30 uM test compound, 5 uM EIPA
Method: Rat NHE-3-mediated Na^+-dependent H^+ antiport was measured using a modification of the pH sensitive dye method originally reported by Tsien (Proc. Natl. Acad. Sci. USA. (1984) 81(23): 7436-7440). Opossum kidney (OK) cells were obtained from the ATCC and propagated per their instructions. The rat NHE-3 gene was introduced into OK cells via electroporation, seeded into 96 well plates and grown overnight. Medium was aspirated from the wells, cells were washed twice with NaCl-HEPES buffer (100 mM NaCl, 50 mM HEPES, 10 mM glucose, 5 mM KCl, 2 mM CaCl2, 1 mM MgCl2, pH 7.4), then incubated for 30 min at room temperature with NH4Cl-HEPES buffer (20 mM NH4Cl, 80 mM NaCl, 50 mM HEPES, 5 mM KCl, 2 mM CaCl2), 1 mM MgCl2, pH 7.4) containing 5 uM BCECF-AM (Invitrogen). Cells were washed twice with Ammonium free, Nat-free HEPES (100 mM choline, 50 mM HEPES, 10 mM glucose, 5 mM KCl, 2 mM CaCl2), 1 mM MgCl2, pH 7.4) and incubated in the same buffer for 10 minutes at room temperature to lower intracellular pH. […] Initial rates were plotted as the average 3-6 replicates, and pIC50 values were estimated using GraphPad Prism.

T1 sequence (P26433 29-831): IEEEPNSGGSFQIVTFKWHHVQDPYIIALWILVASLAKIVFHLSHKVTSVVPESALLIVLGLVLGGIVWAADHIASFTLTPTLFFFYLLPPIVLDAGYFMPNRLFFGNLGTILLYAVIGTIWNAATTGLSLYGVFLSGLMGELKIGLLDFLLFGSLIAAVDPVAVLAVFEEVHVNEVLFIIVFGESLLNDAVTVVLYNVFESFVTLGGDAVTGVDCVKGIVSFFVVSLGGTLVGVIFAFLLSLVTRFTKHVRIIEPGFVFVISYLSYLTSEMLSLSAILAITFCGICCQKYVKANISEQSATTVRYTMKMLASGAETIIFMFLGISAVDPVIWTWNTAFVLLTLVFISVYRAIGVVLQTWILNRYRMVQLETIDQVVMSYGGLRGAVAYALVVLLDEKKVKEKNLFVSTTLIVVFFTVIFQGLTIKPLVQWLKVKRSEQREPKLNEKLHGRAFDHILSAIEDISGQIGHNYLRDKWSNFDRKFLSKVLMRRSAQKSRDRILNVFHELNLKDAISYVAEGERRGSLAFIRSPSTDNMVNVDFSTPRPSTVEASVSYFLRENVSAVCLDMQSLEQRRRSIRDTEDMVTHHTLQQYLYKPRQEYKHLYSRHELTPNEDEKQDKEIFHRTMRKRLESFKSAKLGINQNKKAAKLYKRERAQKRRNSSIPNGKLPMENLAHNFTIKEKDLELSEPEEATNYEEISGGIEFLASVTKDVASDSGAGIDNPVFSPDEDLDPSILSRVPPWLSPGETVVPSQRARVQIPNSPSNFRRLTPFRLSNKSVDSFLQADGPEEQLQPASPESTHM

| rat NHE-3 Average pIC50 | Compound |
| --- | --- |
| 6 to 7 | CN1Cc2c(Cl)cc(Cl)cc2C(c2cccc(S(=O)(=O)NCCOCCOCCOCCNC(=O)NCCOCCOCCOCCNS(=O)(=O)c3cccc(C4CN(C)Cc5c(Cl)cc(Cl)cc54)c3)c2)C1 (centres unmarked) [Example 100, N,N′-(13-oxo-3,6,9,17,20,23-hexaoxa-12,14-diazapentacosane-1,25-diyl)bis(3-(6,8-dichloro-2-methyl-1,2,3,4-tetrahydroisoquinolin-4-yl)benzenesulfonamide)] |
| 6 to 7 | CN1Cc2c(Cl)cc(Cl)cc2C(c2cccc(S(=O)(=O)NCCOCCOCCOCCN)c2)C1 (centres unmarked) [Example 28, N-(2-(2-(2-(2-aminoethoxy)ethoxy)ethoxy)ethyl)-3-(6,8-dichloro-2-methyl-1,2,3,4-tetrahydroisoquinolin-4-yl)benzenesulfonamide] |
| 6 to 7 | N=C(N)Nc1nc(-c2cccc(N3CCN(CCCN)CC3)c2)c2cc(Cl)ccc2n1 [Example 65, 1-(4-(3-(4-(3-aminopropyl)piperazin-1-yl)phenyl)-6-chloroquinazolin-2-yl)guanidine] |

Same assay, conditions: OK cells expressing rat NHE-3; 0-30 uM test compound, 5 uM EIPA; read-out: rat NHE-3 Average pIC50 (converted)

| IC50 [µM] | Compound |
| --- | --- |
| 1 to 10 | CN1Cc2c(Cl)cc(Cl)cc2C(c2cccc(S(=O)(=O)NCCOCCOCCOCCNC(=O)Nc3ccc(NC(=O)NCCOCCOCCOCCNS(=O)(=O)c4cccc(C5CN(C)Cc6c(Cl)cc(Cl)cc65)c4)cc3)c2)C1 (centres unmarked) [Example 209, N,N′-(1,1′-(1,4-phenylenebis(azanediyl))bis(1-oxo-5,8,11-trioxa-2-azatridecane-13,1-diyl))bis(3-(6,8-dichloro-2-methyl-1,2,3,4-tetrahydroisoquinolin-4-yl)benzenesulfonamide)] |

System: not listed separately
Test: Determination of compound Cmax and AUC
Assay type: in vivo
Conditions: rat; Sprague-Dawley rats, oral gavage, serum 0.5-4 h; actual oral dose (mg/kg) given
Method: Sprague-Dawley rats were orally gavaged with test article (2.5 mg/kg) and serum was collected at 0.5, 1, 2 and 4 h. Serum samples were treated with acetonitrile, precipitated proteins removed by centrifugation and supernatants analyzed by LC/MS/MS and compared against a standard curve to determine compound concentration. All compounds were orally dosed at the dosage shown, and pharmacokinetic parameters determined as described in the text.

| Compound | AUC [ng·h/mL] | Cmax [ng/mL] |
| --- | --- | --- |
| CN1Cc2c(Cl)cc(Cl)cc2[C@H](c2cccc(S(=O)(=O)NCCOCCOCCOCCNC(=O)Nc3ccc(NC(=O)NCCOCCOCCOCCNS(=O)(=O)c4cccc([C@@H]5CN(C)Cc6c(Cl)cc(Cl)cc65)c4)cc3)c2)C1 (single isomer, unassigned) [Example 245, (S or R)—N,N′-(1,1′-(1,4-phenylenebis(azanediyl))bis(1-oxo-5,8,1-trioxa-2-azatridecane-13,1-diyl))bis(3-((S or R)-6,8-dichloro-2-methyl-1,2,3,4-tetrahydroisoquinolin-4-yl)benzenesulfonamide)] | < 2 | < 2 |
| CN1Cc2c(Cl)cc(Cl)cc2C(c2cccc(NC(=O)CCOCCOCCOCCNC(=O)[C@H](O)[C@@H](O)C(=O)NCCOCCOCCOCCC(=O)Nc3cccc(C4CN(C)Cc5c(Cl)cc(Cl)cc54)c3)c2)C1 (stereo partly drawn) [Example 179, (2R,3R)—N1,N4-bis(2-(2-(2-(3-(3-(6,8-dichloro-2-methyl-1,2,3,4-tetrahydroisoquinolin-4-yl)phenylamino)-3-oxopropoxy)ethoxy)ethoxy)ethyl)-2,3-dihydroxysuccinamide] | < 35 | < 16 |
| CN1Cc2c(Cl)cc(Cl)cc2C(c2cccc(S(=O)(=O)NCCOCCOCCOCCNC(=O)C(O)C(O)C(=O)NCCOCCOCCOCCNS(=O)(=O)c3cccc(C4CN(C)Cc5c(Cl)cc(Cl)cc54)c3)c2)C1 (centres unmarked) [Example 172, N1,N4-bis(2-(2-(2-(2-(3-(6,8-dichloro-2-methyl-1,2,3,4-tetrahydroisoquinolin-4-yl)phenylsulfonamido)ethoxy)ethoxy)ethoxy)ethyl)-2,3-dihydroxysuccinamide] | < 2 | < 2 |
| CN1Cc2c(Cl)cc(Cl)cc2C(c2ccc(S(=O)(=O)NCCOCCOCCNC(=O)c3cc(N)cc(C(=O)NCCOCCOCCNS(=O)(=O)c4ccc(C5CN(C)Cc6c(Cl)cc(Cl)cc65)cc4)c3)cc2)C1.O=C(O)C(F)(F)F.O=C(O)C(F)(F)F.O=C(O)C(F)(F)F (centres unmarked) [Example 186, 5-amino-N1,N3-bis(2-(2-(2-(4-(6,8-dichloro-2-methyl-1,2,3,4-tetrahydroisoquinolin-4-yl)phenylsulfonamido)ethoxy)ethoxy)ethyl)isophthalamide tris(2,2,2-trifluoroacetate)] | < 5 | < 3.4 |
| CN(CC(=O)NCCOCCOCCNS(=O)(=O)c1ccc(C2CN(C)Cc3c(Cl)cc(Cl)cc32)cc1)CC(=O)NCCOCCOCCNS(=O)(=O)c1ccc(C2CN(C)Cc3c(Cl)cc(Cl)cc32)cc1 (centres unmarked) [Example 185, 2,2′-(methylazanediyl)bis(N-(2-(2-(2-(4-(6,8-dichloro-2-methyl-1,2,3,4-tetrahydroisoquinolin-4-yl)phenylsulfonamido)ethoxy)ethoxy)ethyl)acetamide) tris(2,2,2-trifluoroacetate)] | < 2 | < 2 |
| CN1Cc2c(Cl)cc(Cl)cc2C(c2cccc(S(=O)(=O)NCCOCCOCCNC(=O)NCCOCCOCCNS(=O)(=O)c3cccc(C4CN(C)Cc5c(Cl)cc(Cl)cc54)c3)c2)C1 (centres unmarked) [Example 235, N,N′-(10-oxo-3,6,14,17-tetraoxa-9,11-diazanonadecane-1,19-diyl)bis(3-(6,8-dichloro-2-methyl-1,2,3,4-tetrahydroisoquinolin-4-yl)benzenesulfonamide)] | < 5 | < 5 |
| CN1Cc2c(Cl)cc(Cl)cc2C(c2cccc(NC(=O)NCCOCCOCCOCCNC(=O)C(O)C(O)C(=O)NCCOCCOCCOCCNC(=O)Nc3cccc(C4CN(C)Cc5c(Cl)cc(Cl)cc54)c3)c2)C1 (centres unmarked) [Example 174, N1,N4-bis(1-(3-(6,8-dichloro-2-methyl-1,2,3,4-tetrahydroisoquinolin-4-yl)phenylamino)-1-oxo-5,8,11-trioxa-2-azatridecan-13-yl)-2,3-dihydroxysuccinamide] | < 5 | < 5.4 |
| CN1Cc2c(Cl)cc(Cl)cc2[C@@H](c2ccc(S(=O)(=O)NCCOCCOCCOCCNC(=O)C(O)C(O)C(=O)NCCOCCOCCOCCNS(=O)(=O)c3ccc([C@H]4CN(C)Cc5c(Cl)cc(Cl)cc54)cc3)cc2)C1 (single isomer, unassigned) [Example 226, N1,N4-bis(2-(2-(2-(2-(4-((R or S)-6,8-dichloro-2-methyl-1,2,3,4-tetrahydroisoquinolin-4-yl)phenylsulfonamido)ethoxy)ethoxy)ethoxy)ethyl)-2,3-dihydroxysuccinamide] | < 5 | < 3 |
| CN1Cc2c(Cl)cc(Cl)cc2C(c2cccc(S(=O)(=O)NCCOCCOCCOCCNC(=O)CCC(=O)NCCOCCOCCOCCNS(=O)(=O)c3cccc(C4CN(C)Cc5c(Cl)cc(Cl)cc54)c3)c2)C1 (centres unmarked) [Example 181, N1,N4-bis(2-(2-(2-(2-(3-(6,8-dichloro-2-methyl-1,2,3,4-tetrahydroisoquinolin-4-yl)phenylsulfonamido)ethoxy)ethoxy)ethoxy)ethyl)succinamide] | < 2 | < 2 |

The next lines start with the values.

| AUC [ng·h/mL] | Cmax [ng/mL] | Compound |
| --- | --- | --- |
| < 1 | < 1 | CN1Cc2c(Cl)cc(Cl)cc2C(c2cccc(S(=O)(=O)NCCOCCOCCNC(=O)[C@H](O)[C@@H](O)C(=O)NCCOCCOCCNS(=O)(=O)c3cccc(C4CN(C)Cc5c(Cl)cc(Cl)cc54)c3)c2)C1 (stereo partly drawn) [Example 218, (2R,3R)—N1,N4-bis(2-(2-(2-(3-(6,8-dichloro-2-methyl-1,2,3,4-tetrahydroisoquinolin-4-yl)phenylsulfonamido)ethoxy)ethoxy)ethyl)-2,3-dihydroxysuccinamide] |
| < 4 | < 3.5 | CN1Cc2c(Cl)cc(Cl)cc2C(c2cccc(S(=O)(=O)NCCNC(=O)C(O)C(O)C(=O)NCCNS(=O)(=O)c3cccc(C4CN(C)Cc5c(Cl)cc(Cl)cc54)c3)c2)C1 (centres unmarked) [Example 169, N1,N4-bis(2-(3-(6,8-dichloro-2-methyl-1,2,3,4-tetrahydroisoquinolin-4-yl)phenylsulfonamido)ethyl)-2,3-dihydroxysuccinamide] |
| < 19 | < 10 | CN1Cc2c(Cl)cc(Cl)cc2C(c2cccc(S(=O)(=O)NCCOCCOCCOCCNC(=O)C(=O)NCCOCCOCCOCCNS(=O)(=O)c3cccc(C4CN(C)Cc5c(Cl)cc(Cl)cc54)c3)c2)C1 (centres unmarked) [Example 180, N1,N2-bis(2-(2-(2-(2-(3-(6,8-dichloro-2-methyl-1,2,3,4-tetrahydroisoquinolin-4-yl)phenylsulfonamido)ethoxy)ethoxy)ethoxy)ethyl)oxalamide] |
| < 5 | < 5 | CN1Cc2c(Cl)cc(Cl)cc2C(c2cccc(S(=O)(=O)NCCOCCOCCOCCOCCOCCOCCOCCOCCOCCOCCN)c2)C1 (centres unmarked) [Example 214, N-(32-amino-3,6,9,12,15,18,21,24,27,30-decaoxadotriacontyl)-3-(6,8-dichloro-2-methyl-1,2,3,4-tetrahydroisoquinolin-4-yl)benzenesulfonamide] |
| 242 | 93 | C/C(=C\c1cc(F)c(Oc2ccc(S(=O)(=O)NCCN3CCN(CCNS(=O)(=O)c4ccc(Oc5c(F)cc(/C=C(\C)C(=O)N=C(N)N)cc5F)cc4)CC3)cc2)c(F)c1)C(=O)N=C(N)N [Example 50, N,N′-(2,2′-(piperazine-1,4-diyl)bis(ethane-2,1-diyl))di-((E)-N-(diaminomethylene)-3-(3,5-difluoro-4-(4-sulfamoylphenoxy)phenyl)-2-methylacrylamide)] |
